Molecules are shown by their SMILES. Where only a bound is given, the exact number is not on record here.

The test system of data set [1] is infarct size in the heart. As to conditions: rabbits, cited from earlier work.
The next data set relates to colitis. As to conditions: rats, colitis by intraluminal trinitrobenzene sulfonic acid in 50% ethanol; cited from earlier work.
Data set [2] addresses T1, PARP-1 enzyme (Homo sapiens, UniProt P09874).
T1 construct: made in house
Kind of data set: In vitro Scintillation Proximity Assay (SPA) for PARP-1 inhibitory activity. Type of data set: biochemical. Conditions: nicked DNA activated PARP-1, [3H]-NAD+, biotinylated histones; read-out: In vitro SPA pIC50 (converted). An outline of the steps:
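Human PARP-1 (5–10 μg/ml), activated by nicked DNA (2 μg/ml), ADP-ribosylated biotinylated histones (2 μg/ml) using [3H]-NAD+ as donor for 15 min at room temperature in Tris pH 8/DTT/MgCl2. The reaction was stopped with NAD+ (2 mM final) and read by SPA scintillation counting. IC50 was interpolated from blank-corrected % of control and reported as pIC50.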
A general note: Scintillation proximity formats need no separation of bound from free tracer.

Data set [3] deals with T1, PARP-1 enzyme. Kind of data set: In vitro filtration assay for PARP-1 inhibitory activity. In kind it is biochemical. As to conditions: nicked DNA activated PARP-1, [32P]-NAD, histones; read-out: In vitro filtration assay pIC50 (converted). The method, then: Compounds of the present invention were tested in an in vitro filtration assay assessing PARP-1 activity (triggered in the presence of nicked DNA) by means of its histone poly (ADP-ribosyl)ation activity using [^32P]-NAD as ADP-ribosyl donor. The radioactive ribosylated histones were precipitated by trichloroacetic acid (TCA) in 96-well filterplates and the incorporated [^32P] measured using a scintillation counter
A mixture of histones (stock solution: 5 mg/ml in H2O), NAD (stock solution: 100 mM in H2O), and [^32P]-NAD^+ in incubation buffer (50 mM Tris/HCl, pH 8; 0.2 mM DTT; 4 mM MgCl2) was made. A mixture of the PARP-1 enzyme (5-10 μg/ml) and nicked DNA was also made. The nicked DNA was prepared as described in the in vitro SPA for PARP-1 inhibitory activity. Seventy-five μl of the PARP-1 enzyme/DNA mixture together with 1 μl of compound in DMSO and 25 μl of histones-NAD^+/[^32P]-NAD^+ mixture was added per well of a 96-well filterplate (0.45 μm, supplier Millipore). The final concentrations in the incubation mixture were 2 μg/ml for the histones, 0.1 mM for the NAD^+, […] (0.5 μC) for the [^32P]-NAD^+ and 2 μg/ml for the nicked DNA. Plates were incubated for 15 min. at room temperature and the reaction was terminated by the addition of 10 μl ice cold 100% TCA followed by the addition of 10 μl ice-cold BSA solution (1% in H2O). The protein fraction was allowed to precipitate for 10 min. at 4° C. and plates were vacuum filtered. The plates were subsequently washed with, for each well, 1 ml of 10% ice cold TCA, 1 ml of 5% ice cold TCA and 1 ml of 5% TCA at room temperature. Finally 100 μl of scintillation solution (Microscint 40, Packard) was added to each well and the plates were transferred to a TopCountNXT™ (supplier: Packard) for scintillation counting and values were expressed as counts per minute (cpm). For each experiment, controls (containing PARP-1 enzyme and DMSO without compound), a blank incubation (containing DMSO but no PARP-1 enzyme or compound) and samples (containing PARP-1 enzyme and compound dissolved in DMSO) were run in parallel. All compounds tested were dissolved and eventually further diluted in DMSO. In first instance, compounds were tested at a concentration of 10^−5M. […] In each test, the blank value was subtracted from both the control and the sample values. The control sample represented maximal PARP-1 enzyme activity. For each sample, the amount of cpm was expressed as a percentage of the mean cpm value of the controls. When appropriate, IC50-values (concentration of the drug, needed to reduce the PARP-1 enzyme activity to 50% of the control) were computed using linear interpolation between the experimental points just above and below the 50% level. Herein the effects of test compounds are expressed as pIC50 (the negative log value of the IC50-value). As a reference compound, 4-amino-1,8-naphthalimide was included to validate the filtration assay.

T1 sequence (P09874 whole entry): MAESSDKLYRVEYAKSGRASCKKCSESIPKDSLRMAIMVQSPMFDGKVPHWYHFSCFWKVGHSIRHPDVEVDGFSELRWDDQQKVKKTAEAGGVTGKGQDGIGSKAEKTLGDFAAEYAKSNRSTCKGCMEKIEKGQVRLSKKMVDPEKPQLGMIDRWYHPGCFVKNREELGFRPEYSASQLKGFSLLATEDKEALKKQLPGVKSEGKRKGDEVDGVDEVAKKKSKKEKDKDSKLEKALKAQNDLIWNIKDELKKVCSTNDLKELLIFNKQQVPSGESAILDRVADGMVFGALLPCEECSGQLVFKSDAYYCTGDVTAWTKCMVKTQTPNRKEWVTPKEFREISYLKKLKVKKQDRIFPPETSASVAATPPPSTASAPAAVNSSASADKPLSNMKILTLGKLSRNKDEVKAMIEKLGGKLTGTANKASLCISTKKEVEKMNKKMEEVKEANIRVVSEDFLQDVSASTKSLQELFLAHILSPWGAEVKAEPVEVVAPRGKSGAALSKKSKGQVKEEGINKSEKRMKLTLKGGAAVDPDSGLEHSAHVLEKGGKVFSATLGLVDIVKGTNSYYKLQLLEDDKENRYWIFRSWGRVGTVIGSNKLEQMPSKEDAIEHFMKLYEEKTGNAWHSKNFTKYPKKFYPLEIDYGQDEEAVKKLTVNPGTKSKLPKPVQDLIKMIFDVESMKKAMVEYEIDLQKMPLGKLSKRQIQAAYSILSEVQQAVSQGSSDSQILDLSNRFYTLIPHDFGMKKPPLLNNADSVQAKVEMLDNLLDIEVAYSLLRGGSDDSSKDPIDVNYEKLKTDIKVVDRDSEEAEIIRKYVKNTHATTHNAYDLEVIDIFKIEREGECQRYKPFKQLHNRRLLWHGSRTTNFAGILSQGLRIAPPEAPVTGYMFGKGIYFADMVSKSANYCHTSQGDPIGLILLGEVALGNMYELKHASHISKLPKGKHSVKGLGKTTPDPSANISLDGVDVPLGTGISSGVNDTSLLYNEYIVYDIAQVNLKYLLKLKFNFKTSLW

With `Cc1cc2cc(C(c3ccccc3)c3cncn3C)ccc2[nH]c1=O` (stereo not shown) (hydrate or solvate) [Compound 10], the melting point is 240 °C.
Same read-out and setting: to `CCc1cc2cc([C@@H](CCN3CCCCC3)c3ccc4c(c3)OCCO4)ccc2[nH]c1=O` (single isomer, unassigned) [Compound 144] belongs 159 °C; to `CCc1cc2cc([C@H](CCN3CCCCC3)c3ccc4c(c3)OCCO4)ccc2[nH]c1=O` (single isomer, unassigned) [Compound 145], 172 °C.
As to `Oc1cccc2c(O)nccc12` [1,5-dihydroxyisoquinoline], the “reduction in infarct size” value in data set [1] (single injection 1 mg/kg) was 38-48%.
`NC(=O)c1cccc(N)c1` [3-amino-benzamide]: the “effect on inflammatory response, morphology and energetic status of the distal colon” value in the data set with colitis is “reduced the inflammatory response and restored the morphology and the energetic status of the distal colon”. Moreover, the “reduction in infarct size in the heart” value in data set [1] (single injection 10 mg/kg, one minute before occlusion or one minute before reperfusion) was 32-42%.
`CNC(c1ccccc1)c1ccc2[nH]c(=O)c(C)cc2c1` (stereo not shown) [Compound 1] showed a melting point of 174.3 °C. The IC50 on PARP-1 enzyme [2] is 285 nM. On PARP-1 enzyme [3], the IC50 is 2330 nM.
For `CCc1cc2cc(C(=O)c3ccc4c(c3)OCCO4)ccc2[nH]c1=O` [Compound 2], the melting point was determined as 255 °C. Moreover, the IC50 at PARP-1 enzyme [2] was 735 nM.
For the compound `CCc1cc2cc(C(OC(C)=O)c3ccccc3)ccc2[nH]c1=O` (stereo not shown) [Compound 3], the melting point amounted to 168.2 °C. For the same compound, the IC50 on PARP-1 enzyme [2] is 407 nM. Also, at PARP-1 enzyme [3], the IC50 is 4340 nM.
On the same counts, the results for `Cc1cc2cc(C(C#N)c3ccccc3)ccc2[nH]c1=O` (stereo not shown) [Compound 4] are 227.5 °C, 435 nM and 2670 nM.
`Cc1cc2cc(C(c3ccccc3)n3cncn3)ccc2[nH]c1=O` (stereo not shown) [Compound 5] came in with a melting point of 254.2 °C. For the same compound, at PARP-1 enzyme [2], the IC50 is 1400 nM. The IC50 at PARP-1 enzyme [3] is 9440 nM.
`Cc1cc2cc(C(c3ccccc3)N(C)C)ccc2[nH]c1=O` (stereo not shown) [Compound 6] registered a melting point of 226.7 °C. Further, the IC50 at PARP-1 enzyme [2] was 957 nM. Also, the IC50 on PARP-1 enzyme [3] is 3940 nM.
The compound `CC(=O)NCC(c1ccccc1)c1ccc2[nH]c(=O)c(C)cc2c1` (stereo not shown) [Compound 8] returned a melting point of 206.2 °C. Besides, at PARP-1 enzyme [2], the IC50 was 213 nM. In addition, the IC50 at PARP-1 enzyme [3] was 2540 nM.
Compound `COC(c1ccccc1)c1ccc2[nH]c(=O)c(C)cc2c1` (stereo not shown) [Compound 9] had a melting point of 207.3 °C. Moreover, the IC50 at PARP-1 enzyme [2] was 1800 nM. Besides, on PARP-1 enzyme [3], the IC50 was 9400 nM.
On to `COCCNC1CCN(C(c2ccc3c(c2)OCCO3)c2ccc3[nH]c(=O)c4ccccc4c3c2)CC1` (stereo not shown) [Compound 11], for which the melting point worked out at 116 °C. In addition, the IC50 on PARP-1 enzyme [2] was 7.29 nM.
Consider `CCc1cc2cc(C(O)c3ccc4c(c3)OCO4)ccc2[nH]c1=O` (stereo not shown) [Compound 12], for which the melting point came out at 211 °C. Further, the IC50 on PARP-1 enzyme [2] was 40.1 nM.
With `CCc1cc2cc(C(c3ccc4c(c3)OCCO4)C3CCN(C/C=C/c4ccccc4)CC3)ccc2[nH]c1=O` (stereo not shown) [Compound 14], the melting point came out at 107 °C. In addition, at PARP-1 enzyme [2], the IC50 is 97.1 nM.
On the same counts, the results for `CCc1cc2cc(C(CCN3CCCCC3)c3ccc4c(c3)OCCO4)ccc2[nH]c1=O` (stereo not shown) [Compound 16] are 181 °C and 9.2 nM.
In the case of `CCc1cc2cc(C(c3ccccc3)n3ccnc3)ccc2[nH]c1=O` (stereo not shown) [Compound 17], the melting point was determined as 220.1 °C. The IC50 on PARP-1 enzyme [2] is 152 nM. Further, the IC50 at PARP-1 enzyme [3] is 619 nM.
`CCc1cc2cc(C(NC=O)c3ccc4c(c3)OCCO4)ccc2[nH]c1=O` (stereo not shown) [Compound 18] showed a melting point greater than 260 °C. At PARP-1 enzyme [2], the IC50 was 19.5 nM.
`CCc1nc2cc(CC(O)c3ccc(Cl)cc3)ccc2[nH]c1=O` (stereo not shown) [Compound 19] gave a melting point of 204 °C. Moreover, the IC50 on PARP-1 enzyme [2] was 256 nM.
Consider `CCc1nc2cc(CC(c3ccc(Cl)cc3)n3ccnc3)ccc2[nH]c1=O` (stereo not shown) [Compound 20], for which the melting point came to 270 °C. Further, the IC50 at PARP-1 enzyme [2] was 275 nM. Moreover, the IC50 at PARP-1 enzyme [3] is 1750 nM.
For `CCc1nc2cc(CC(c3ccc(Cl)cc3)N3CCCC3)ccc2[nH]c1=O` (stereo not shown) [Compound 21], the melting point was determined as 194 °C. Moreover, the IC50 at PARP-1 enzyme [2] is 191 nM.
`CCc1nc2cc(C(c3ccc(Cl)cc3)n3cncn3)ccc2[nH]c1=O` (stereo not shown) [Compound 22] returned a melting point of 188 °C. Further, the IC50 on PARP-1 enzyme [2] is 366 nM. At PARP-1 enzyme [3], the IC50 is 4050 nM.
For `CCc1nc2cc(C(c3ccccc3)n3ccnc3)ccc2[nH]c1=O` (stereo not shown) [Compound 127, 3-ethyl-6-(1H-imidazol-1-ylphenylmethyl)-2(1H)-quinoxalinone], the IC50 on PARP-1 enzyme [2] was 1110 nM; at PARP-1 enzyme [3], 3660 nM.
As to `COc1ccc(C(c2ccc3[nH]c(=O)c(C)nc3c2)n2ccnc2)cc1` (stereo not shown) [Compound 128, 6-[(1H-imidazol-1-yl)(4-methoxyphenyl)methyl]-3-methyl-2(1H)-quinoxalinone], the IC50 at PARP-1 enzyme [2] is 361 nM; on PARP-1 enzyme [3], 2300 nM.
`CCc1cc2cc(C(=C3CCNCC3)c3ccc4c(c3)OCCO4)ccc2[nH]c1=O` [Compound 131] returned a melting point of 249 °C. For the same compound, on PARP-1 enzyme [2], the IC50 is 27.7 nM.
In the same order, the values of `CCc1cc2cc(C(=C3CCN(CCc4ccc(OC)cc4)CC3)c3ccc4c(c3)OCCO4)ccc2[nH]c1=O` [Compound 132] are 203 °C and 57.1 nM.
For the compound `CCc1cc2cc(C(=C3CCN(CC(O)COc4ccc(OC)cc4)CC3)c3ccc4c(c3)OCCO4)ccc2[nH]c1=O` (stereo not shown) [Compound 133], the melting point was determined as 219 °C. Besides, at PARP-1 enzyme [2], the IC50 was 124 nM.
`Cc1cc2cc(/C(=C3\CCCN(C)C3)c3ccccc3)ccc2[nH]c1=O` [Compound 134]: the IC50 is 299 nM on PARP-1 enzyme [2] and 1560 nM on PARP-1 enzyme [3].
On the same counts, the results for `Cc1cc2cc(/C(=C/CN(C)C)c3cccc4[nH]c(=O)c(C)cc34)ccc2[nH]c1=O` [Compound 135] are 794 nM and 4180 nM.
Take `CCc1cc2cc(/C(=C/CN(C)C)c3ccccc3)ccc2[nH]c1=O` [Compound 139]: the IC50 was 668 nM at PARP-1 enzyme [2] and 4120 nM on PARP-1 enzyme [3].
For the compound `CCc1cc2cc(/C(=C\CN(C)C)c3ccccc3)ccc2[nH]c1=O` [Compound 140], the IC50 at PARP-1 enzyme [2] was 431 nM; on PARP-1 enzyme [3], 2150 nM.

In general, melting point refers to the temperature, or range, at which the solid turns liquid.

Values taken from US8071612B2, “6-alkenyl and 6-phenylalkyl substituted 2-quinolinones and 2-quinoxalinones as poly(ADP-ribose) polymerase inhibitors” (Janssen Pharmaceutica, NV, priority 2004, dated 2011).
